# “And” between values parts separate entries of the source, which are not always exact repeats. Equal entries are not always repeated.
# What was measured:
# hMAO-A = biological target: T1, hMAO-A (Homo sapiens, UniProt P21397); test: biochemical; conditions: for IC50: read-out: hMAO-A (IC50), recombinant hMAO-A, p-tyramine substrate
# T1 sequence (P21397 1-527): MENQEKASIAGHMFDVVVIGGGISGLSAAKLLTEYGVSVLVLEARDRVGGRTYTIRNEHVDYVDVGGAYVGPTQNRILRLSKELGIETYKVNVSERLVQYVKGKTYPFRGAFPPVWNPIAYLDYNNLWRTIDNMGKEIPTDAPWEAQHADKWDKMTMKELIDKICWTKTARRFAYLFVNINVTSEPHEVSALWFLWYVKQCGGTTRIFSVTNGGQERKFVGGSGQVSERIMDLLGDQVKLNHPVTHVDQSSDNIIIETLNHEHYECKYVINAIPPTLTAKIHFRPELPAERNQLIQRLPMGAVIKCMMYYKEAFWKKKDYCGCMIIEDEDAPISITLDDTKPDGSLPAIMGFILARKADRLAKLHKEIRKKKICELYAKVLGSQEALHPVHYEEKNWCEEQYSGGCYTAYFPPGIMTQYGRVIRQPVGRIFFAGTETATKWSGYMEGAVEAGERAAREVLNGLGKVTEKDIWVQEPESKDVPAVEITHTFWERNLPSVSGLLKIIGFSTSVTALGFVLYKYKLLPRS
# Procedure: (§1) The hMAO-A/B inhibition of all compounds was determined using the Amplex Red MAO assay kit.
# (§2) Assays were performed following the general procedure previously described.[98] […] The specific fluorescence emission was calculated after subtracting the background activity, which was determined from wells containing all components except the hMAO isoforms, which were replaced with PBS.
# hMAO-B = biological target: T2, hMAO-B (Homo sapiens, UniProt P27338); test: biochemical; conditions: for IC50: read-out: hMAO-B (IC50), recombinant hMAO-B, p-tyramine substrate; for inhibition at 50 µM: read-out: hMAO-B percentage of inhibition (in brackets)
# T2 sequence (P27338 1-520): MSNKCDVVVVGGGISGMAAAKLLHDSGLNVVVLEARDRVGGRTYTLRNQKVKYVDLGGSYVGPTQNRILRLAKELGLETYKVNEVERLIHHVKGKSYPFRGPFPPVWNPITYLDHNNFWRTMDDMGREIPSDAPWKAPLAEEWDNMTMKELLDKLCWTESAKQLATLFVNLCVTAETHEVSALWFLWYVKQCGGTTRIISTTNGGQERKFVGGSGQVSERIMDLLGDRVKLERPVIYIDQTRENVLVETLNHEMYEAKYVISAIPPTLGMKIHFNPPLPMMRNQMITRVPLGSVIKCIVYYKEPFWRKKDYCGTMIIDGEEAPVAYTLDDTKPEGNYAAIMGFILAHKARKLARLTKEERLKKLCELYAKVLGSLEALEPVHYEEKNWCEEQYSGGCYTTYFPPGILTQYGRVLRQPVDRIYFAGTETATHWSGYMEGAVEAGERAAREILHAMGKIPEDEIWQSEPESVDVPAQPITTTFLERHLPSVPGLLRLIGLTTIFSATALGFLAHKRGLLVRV
# Procedure: as §1, §2
# [1] = tested on: NRF2-ARE signaling pathway; test: cells; format: cell-based; conditions: for NRF2 (CD, μM): concentration required to double luciferase activity, AREc32 cells, 24 h; for EC (2-fold induction): Arec32, 24 h, read-out: NRF2 (CD, μM), concentration required to double luciferase activity, AREc32 cells, 24 h
# Procedure: AREc32 cells were plated in 96-well white plates (2 × 10^4 cells/well). […]. The AREc32 cells constitutively express the plasmid pGL-8xARE that implements eight copies of the EpRE sequences, followed by the luciferase reporter gene. Therefore, NRF2 induction is related to the activation of EpRE sequences, expressing luciferase at the same extent as EpRE sequences are activated. The Luciferase Assay System (Promega E1500) was used according to the provider’s protocol, and luminescence was quantified in an Orion II microplate luminometer (Berthold, Germany). Fold induction of luciferase activity was normalized to basal conditions. Data are expressed as CD values, expressing the concentration required to double the luciferase activity. CD values were calculated from dose–response curves generated from the fold induction of control conditions versus inducer concentration and fitted by nonlinear regression and data interpolated to twofold induction concentration.[68]
# adult mice NSCs = test: Neurogenic studies in SGZ-derived neurospheres; format: cell-based, mouse; conditions: 10 μM
# Procedure: Adult mice NSCs were isolated from SGZ of the dentate gyrus of the hippocampus and grown as free-floating neurospheres (NS).[72],[78] The neurogenic potential of each compound was determined using fluorescence confocal microscopy by quantifying the expression of two well-known neuronal markers: human β-III-tubulin (TuJ-1 clone) and microtubule-associated protein 2 (MAP-2). TuJ-1 is expressed in immature neurons, whereas the expression of MAP-2 indicates a consolidated mature neuronal stage.[79] Given that neurogenesis involves not only the proliferation of NSC but also the migration of newly generated cells, the greatest migration distance promoted by each compound was also measured (Figure 8).
# Adult male C57BL/6 mice (3 months old) were used in order to determine neurogenesis activity. […] DAPI staining was used as a nuclear marker. Fluorescent representative images were acquired with a Nikon fluorescence microscope 90i coupled to a digital camera Qi. The microscope configuration was adjusted to produce the optimum signal-to-noise ratio. […] Quantification was undertaken using the image analySIS software (Soft Imaging System Corp., Münster, Germany) and normalized to total nuclei (DAPI-stained). The intensity of immunostaining of neurites from TuJ1-labeled cells and the number of MAP-2-positive cells were estimated from nine neurospheres per condition over three independent experiments. The outgrowth of the neurosphere cells was examined under a phase-contrast microscope and the farthest distance of cell migration was calculated from the edge of the sphere. At least 10 plated neurospheres per treatment were analyzed.
# [2] = Oxygen radical absorbance capacity (ORAC-FL) assay; conditions: trolox = 1.0
# Procedure: 2,2′-Azobis-(amidinopropane) dihydrochloride (AAPH), trolox, and fluorescein (FL) were purchased from Sigma-Aldrich. The reaction was carried out in a 75 mM phosphate buffer (pH 7.4), and the final reaction mixture was 200 μL. […] Antioxidant curves (fluorescence vs time) were first normalized to the curve of the blank corresponding to the same assay, and the area under the curve (AUC) of fluorescence decay was calculated. The net AUC corresponding to a sample was calculated by subtracting the AUC corresponding to the blank. Regression equations between the net AUC and antioxidant concentration were calculated for all the samples.
# QR2 = biological target: T3, QR2 (Mesocricetus auratus, UniProt A0ABM2YAB8); test: biochemical; conditions: for inhibition at 10 µM: read-out: QR2 percentage of inhibition (in brackets)
# T3 sequence (A0ABM2YAB8 1-231): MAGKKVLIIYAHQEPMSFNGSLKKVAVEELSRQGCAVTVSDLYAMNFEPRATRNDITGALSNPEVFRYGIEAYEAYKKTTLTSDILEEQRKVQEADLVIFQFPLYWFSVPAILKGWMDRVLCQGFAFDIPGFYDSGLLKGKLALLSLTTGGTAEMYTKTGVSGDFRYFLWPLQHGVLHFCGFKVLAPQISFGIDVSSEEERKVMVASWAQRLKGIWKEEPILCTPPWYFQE
# Procedure: The QR2 experiments were performed in membrane homogenates of hamster brains (https://www.eurofins.fr, catalog ref. 0088). […] First, radioligand displacement was measured at a fixed compound concentration (10 μM) in each receptor.
# in vitro = in vitro ADME; conditions: for Papp at 240 min, 100 μg mL^–1: PAMPA, pH 7.4, class from PAMPA-BBB Pe, read-out: CNS-permeability prediction; for PAMPA-BBB (Pe, 10^–6 cm s^–1): porcine brain lipid, PBS/EtOH (70:30), 240 min, 25 °C
# Experimental pKa = format: physicochemical
# Procedure: Introduction of the propargyl group in derivatives 2 was achieved by alkylation of the NH group of the oxadiazolone ring with propargyl bromide in basic media (K2CO3) and acetone. […] However, alkylation of the 3-hydroxylated derivative 3l was carried out overnight at room temperature (rt) in order to avoid possible secondary reactions through the phenolic group (experimental pKa for NH-oxadiazolone, 7.04 ± 0.02; for phenol 8.72 ± 0.02, Supporting Information 1, Table S1 and Figure S11).
# [3] = tested on: rat primary cortical neurons; test: Neuroprotection against OA-induced toxicity in rat primary cortical neuronal cultures (MTT); conditions: for neuroprotection against OA-induced toxicity: compound 1 μM, OA 10 nM
Compound,IC50 (hMAO-A) [µM],IC50 (hMAO-B) [µM],"NRF2 (CD, μM) [1] [µM]",TuJ-1 and MAP-2 marked cells (adult mice NSCs),cell migration distance (adult mice NSCs),ORAC (trolox equiv) [2] [trolox equiv],IC50 (QR2) [µM],inhibition at 10 µM (QR2) [%],"Papp at 240 min, 100 μg mL^–1 (in vitro) [×10⁻⁶ cm/s]","PAMPA-BBB (Pe, 10^–6 cm s^–1) (in vitro)",inhibition at 50 µM (hMAO-A; read-out: hMAO-A percentage of inhibition (in brackets)) [%],inhibition at 50 µM (hMAO-B) [%],EC (2-fold induction) [1] [µM],pKa (Experimental pKa; experimental pKa for NH-oxadiazolone),pKa (Experimental pKa; experimental pKa for phenol),neuroprotection against OA-induced toxicity [3],"viability at 1 µM ([3]; Rattus norvegicus, Primary cortical neuron, read-out: cell viability) [%]"
"O=c1[nH]nc(/C=C/c2cccc([N+](=O)[O-])c2)o1 [2c, 5-[(E)-2-(3-Nitrophenyl)ethenyl]-1,3,4-oxadiazol-2(3H)-one]",> 50,1.06 ± 0.22,8.42 ± 0.82,clearly increased,extended,<0.1,~10,56,> 4,4.7 ± 0.2 10^–6 cm s^–1,–,–,–,–,–,–,–
"COc1cccc(/C=C/c2n[nH]c(=O)o2)c1 [2d, 5-[(E)-2-(3-Methoxyphenyl)ethenyl]-1,3,4-oxadiazol-2(3H)-one]",> 50,> 50,–,clearly increased,extended,<0.1,~10,76,> 4,4.6 ± 0.2 10^–6 cm s^–1,24,33,> 60,–,–,–,–
"O=c1[nH]nc(/C=C/c2cccc(O)c2)o1 [3l, 5-[(E)-2-(3-Hydroxyphenyl)ethenyl]-1,3,4-oxadiazol-2(3H)-one]",> 50,> 50,–,clearly increased,extended,3.8 ± 0.1,–,–,< 2,≤ 0.5 10^–6 cm s^–1,–,–,> 60,7.04 ± 0.02,8.72 ± 0.02,–,–
"O=c1[nH]nc(/C=C/c2ccc(O)cc2)o1 [3m, 5-[(E)-2-(4-Hydroxyphenyl)ethenyl]-1,3,4-oxadiazol-2(3H)-one]",41.5 ± 3.4,35.7 ± 3,–,–,–,3.2 ± 0.1,–,–,< 2,≤ 0.7 10^–6 cm s^–1,–,–,–,–,–,not able to significantly reduce neuronal death,–
"C#CCn1nc(/C=C/c2cccc(OC)c2)oc1=O [4d, 5-[(E)-2-(3-Methoxyphenyl)ethenyl]-3-(prop-2-yn-1-yl)-1,3,4-oxadiazol-2(3H)-one]",> 50,0.64 ± 0.06,7.44 ± 0.34,clearly increased,extended,0.3 ± 0.06,0.4 ± 0.03,–,> 4,7.5 ± 0.3 10^–6 cm s^–1,–,–,–,–,–,slightly higher neuroprotection profile than resveratrol,86
"C#CCn1nc(/C=C/c2cccc(O)c2)oc1=O [5l, 5-[(E)-2-(3-Hydroxyphenyl)ethenyl]-3-(prop-2-yn-1-yl)-1,3,4-oxadiazol-2(3H)-one]",> 50,3.53 ± 0.15,8.05 ± 1.41,–,–,2.7 ± 0.2,2.5 ± 0.12,–,> 4,4.7 10^–6 cm s^–1 and 4.7 ± 0.2 10^–6 cm s^–1,–,–,–,–,–,–,–
"C#CCNC(=O)/C=C/c1ccc(O)c(O)c1 [6o, (2E)-3-(3,4-Dihydroxyphenyl)-N-(prop-2-yn-1-yl)prop-2-enamide]",47 ± 0.9,> 50,19.2 ± 3.7,–,–,1.9 ± 0.1,–,–,< 2,≤ 0.4 10^–6 cm s^–1,–,48,–,–,–,slightly higher neuroprotection profile than resveratrol,–
"C#CCNC/C=C/c1ccc(O)c(OC)c1 [8n, 2-Methoxy-4-{(1E)-3-[(prop-2-yn-1-yl)amino]prop-1-en-1-yl}phenol]",30.3 ± 2.5,> 50,22.3 ± 2.9,–,–,2.1 ± 0.2,0.2 ± 0.04,–,> 4,8.7 10^–6 cm s^–1 and 8.7 ± 0.6 10^–6 cm s^–1,–,45,–,–,–,–,–

# — article PMC8958504 (Journal of Medicinal Chemistry, 2022)
